Test results: PubChem BioAssay AID588659 (The Scripps Research Institute Molecular Screening Center, 2011)
Active and inactive are the calls of the source.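 The calls were made as follows: active = change in p38 protein level versus solvent-only treated cells of at least 30%, down or up; inactive = change under 30% either way.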

Columns and labels:
[1] = target: Mitogen-activated protein kinase 14 (Homo sapiens) (UniProt Q16539); test: altered p38 MAPK protein abundance – HT29 cells, chemiluminescent western blot, powder samples, counter-screen for KLF5 inhibitor project, late-stage follow-up (AID 588659); conditions: HT29 cells, p38 western blot, 24 h; at 10 µM; stronger effect = higher value
Mitogen-activated protein kinase 14 (Homo sapiens), sequence (Q16539 whole entry, looked up): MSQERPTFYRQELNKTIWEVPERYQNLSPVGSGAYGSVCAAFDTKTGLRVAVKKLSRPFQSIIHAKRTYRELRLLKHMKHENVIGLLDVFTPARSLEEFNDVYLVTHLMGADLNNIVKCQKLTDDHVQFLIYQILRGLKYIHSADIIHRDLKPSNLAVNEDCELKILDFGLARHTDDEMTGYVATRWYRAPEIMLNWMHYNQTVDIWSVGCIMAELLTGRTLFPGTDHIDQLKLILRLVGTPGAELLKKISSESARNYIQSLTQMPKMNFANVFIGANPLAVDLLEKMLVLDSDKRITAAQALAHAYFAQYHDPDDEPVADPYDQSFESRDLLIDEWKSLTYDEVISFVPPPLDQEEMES

[2] = test system: HT29 cells, p38 western blot, 24 h; test: as above; conditions: measured here: p38 band fold change vs DMSO; at 10 µM

Row | SMILES | inhibition [1] | fold change [2]
1 | CN(C(=O)COC(=O)/C=C/c1cccc([N+](=O)[O-])c1)C1CCS(=O)(=O)C1 (centres undefined) | 14.3% (inactive) | –
2 | CN(C(=O)CNC(=O)/C=C/c1cccc(Cl)c1)C1CCS(=O)(=O)C1 (centres undefined) | -2.37% (inactive) | 1.02
3 | CN(C(=O)CNC(=O)/C=C/c1cccc(Cl)c1)C1CCS(=O)(=O)CC1 | 10.2% (inactive) | –
